Data published in the supplement of paper PMC9663587.

Columns and labels:
MCF10A (GM) = experiment: GRmax, 72 h; higher = less effect;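 note: breast cell lines in 384-well plates, nine doses across a 10^4 range, Dye Drop imaging of viable cells vs DMSO and time-zero plates, GR 0 means no net growth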
PDX1206 = experiment: GRmax, 72 h; higher = less effect;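 note: breast cell lines in 384-well plates, nine doses across a 10^4 range, Dye Drop imaging of viable cells vs DMSO and time-zero plates, GR 0 means no net growth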

Row | SMILES | GRmax, 72 h (MCF10A (GM)) [GR] | GRmax, 72 h (PDX1206) [GR]
1 | CN1CCN(C(=O)c2ccc3cc(CCNc4ncnc5ccc(C#N)cc45)ccc3c2)CC1 [senexin b] (max 10 µM) | 0.893 | 0.223
2 | C[C@@H]1COCCN1c1cc(C2([S@](C)(=N)=O)CC2)nc(-c2cc[nH]c3nccc2-3)n1 [AZD6738] (max 10 µM) | 0.226 | 0.141
3 | COc1ccc2c(c1)[C@]1(C[C@H]1c1ccc3c(/C=C/c4ccc(CN5C[C@@H](C)O[C@@H](C)C5)cc4)n[nH]c3c1)C(=O)N2 | 0.0912 | 0.0507
4 | CCCCOc1c(C(=O)c2c(F)cc(C)cc2F)c[nH]c2nncc1-2 (max 10 µM) | 0.106 | 0.123
5 | C=CC(=O)Nc1ccc(C(=O)Nc2[nH]nc3c2CN(C(=O)N[C@H](CN(C)C)c2ccccc2)C3(C)C)cc1 [YKL-5-124] (max 10 µM) | -0.141 | -0.513
6 | CC1(N)CCN(c2cnc(-c3cccc(Cl)c3Cl)c(N)n2)CC1 [SHP099] (max 10 µM) | 0.738 | 0.7
